# Columns and labels:
# [1] = test system: breast cancer MDA-MB-231 cells; assay: Scratch (wound-healing) assay, MDA-MB-231; assay type: cell-based; conditions: Homo sapiens, 24 h of treatment, compared to control at 24 h, read-out: inhibition of migration of MDA-MB-231 cells
# Source text: (§1) Metastasis is the leading cause of cancer mortality. The metastatic cascade is a multistep process in which cancer cells are […], from the primary tumor to distant parts and tissues. Migration and plasticity of cancer cells, as well as the environment such as stromal and endothelial cells, are essential in metastasis. In this study, the migration ability (invasive potential) of colorectal carcinoma HCT 116 cells and breast cancer MDA-MB-231 cells and the anti-invasive effect of compound 2 were determined by the “wound-healing”, or scratch, method.
# HCT 116 and MDA-MB-231 cells (3 × 10^5 cells/mL) were seeded in 6-well plates and grown to 80% confluence for 24 h. After removing the culture medium, the cells’ monolayer was scraped with a 200 µL sterile pipette tip, to create a straight scratch. Then, the cells were treated with compound 2 at concentrations of 0.6, 1.25, 2.5, and 5 µM and incubated for 24, 48, and 72 h. All experiments were set up in triplicate for each group. For image analysis, the cell migration into the wound area was photographed at the stages of 0, 24, 48, and 72 h through a Motic AE 20 microscope and using the ImageJ v. […] The cell migration distance was estimated by measuring the width of the wound, and was expressed as the percentage of each control (0 h) in relation to the mean of the wound-closure area.
# [2] = test system: colorectal carcinoma HCT 116 cells; assay: cells; assay type: cell-based
# Experimental: We determined the cytotoxicity of compounds 1–3 and 6–8 against human embryonic kidney HEK 293, colorectal carcinoma HCT 116, and breast cancer MDA-MB-231 cells by the MTS assay, after 24 h of treatment with the compounds. We calculated the inhibiting concentration that cause death of 50% of cells (IC50) and the selectivity index (SI) of the compounds tested (Table 4).
# (§2) The human embryonic kidney HEK 293 cells (ATCC® CRL-1573™), breast cancer MDA-MB-231 cells (ATCC® HTB-26™), and colorectal carcinoma HCT 116 cells (ATCC® CCL-247™) were purchased from the American Type Culture Collection (Manassas, VA, USA). The HEK 293 and MDA-MB-231 cells were cultured in DMEM; the HCT 116 cells were cultured in the McCoy’s 5A medium at 37 °C in a humidified atmosphere containing 5% CO2. The culture media were supplemented with 10% heat-inactivated FBS and a 1% penicillin/streptomycin solution. The number of passages was carefully controlled, and contamination by Mycoplasma was monitored on a regular basis.
# (§3) Compounds 1–3, and 6–8 were dissolved in sterile dimethyl sulfoxide (DMSO), to prepare stock concentrations of 20 mM. Cells were treated with serially diluted 1–3, 6–8 (0.3–100 µM) (with the culture medium used as diluent) (the final concentration of DMSO was less than 0.5%). The vehicle control was the cells treated with an equivalent volume of DMSO (the final concentration was less than 0.5%) for all of the presented experiments.
# (§4) HEK 293 (1.0 × 10^4/200 µL), HCT 116 (1.0 × 10^4/200 µL), and MDA-MB-231 (0.8 × 10^4/200 µL) cells were seeded in a 96-well plate and incubated for 24 h at 37 °C in a CO2 incubator. […] The cells were subsequently incubated with 15 µL of the MTS reagent for 3 h. The absorbance of each well was measured at 490/630 nm on a Power Wave XS microplate reader (BioTek, Winooski, VT, USA).
# (§5) The IC50 concentration was calculated using the AAT-Bioquest® online calculator [24]. The selectivity index (SI) was calculated as described previously, using the following formula: SI = IC50 of the compounds for normal cells (HEK 293) divided by IC50 of the same compounds for the human colorectal adenocarcinoma and breast cancer (HCT 116 and MDA-MB-231) cell lines.
# [3] = test system: breast cancer MDA-MB-231 cells; assay: Soft-agar clonogenic assay, MDA-MB-231; assay type: cell-based, human; conditions: 14 days
# Experimental: (§6) The soft-agar clonogenic assay was applied in order to assess the effect of compound 2 on the colony formation of human colorectal carcinoma HCT 116 and breast cancer MDA-MB-231 cells. As a result, compound 2 at concentrations of 0.6, 1.25, 2.5, and 5 µM decreased the number of colonies of HCT 116 cells by 11, 24, 52, and 97%, respectively (Figure 6a,b) and MDA-MB-231 cells by 20, 39, 61, and 80%, respectively (Figure 6c,d).
# (§7) HCT 116 and MDA-MB-231 cells (2.4 × 10^4/mL) were treated with compound 2 (0.6, 1.25, 2.5, and 5 µM). Then, the cells were placed onto 0.3% BME agar containing 10% FBS, 2 mM L-glutamine, and 25 µg/mL gentamicin. The cultures were maintained at 37 °C in a 5% CO2 incubator for 14 days. The number of colonies was counted under an AE 20 Motic microscope using the ImageJ v. 1.50i software, bundled with 64-bit Java 1.6.0_24 (NIH, Bethesda, MD, USA).
# [4] = test system: human colorectal carcinoma HCT 116 cells; assay: Soft-agar clonogenic assay, HCT 116; assay type: cell-based; conditions: 14 days
# Experimental: as §6, §7
# [5] = test system: human colorectal carcinoma HCT 116 cells; assay: Scratch (wound-healing) assay, HCT 116; assay type: cell-based; conditions: for suppression of migration of HCT 116 cells: 48 h, compared to control at 48 h; for reduction of migration of HCT 116 cells: 72 h of treatment, compared to control at 72 h
# Source text: as §1
# HCT 116 and MDA-MB-231 cells (3 × 10^5 cells/mL) were seeded in 6-well plates and grown to 80% confluence for 24 h. After removing the culture medium, the cells’ monolayer was scraped with a 200 µL sterile pipette tip, to create a straight scratch. Then, the cells were treated with compound 2 at concentrations of 0.6, 1.25, 2.5, and 5 µM and incubated for 24, 48, and 72 h. All experiments were set up in triplicate for each group. For image analysis, the cell migration into the wound area was photographed at the stages of 0, 24, 48, and 72 h through a Motic AE 20 microscope and using the ImageJ v. 1.50i software, bundled with 64-bit Java 1.6.0_24 (NIH, Bethesda, MD, USA). The cell migration distance was estimated by measuring the width of the wound, and was expressed as the percentage of each control (0 h) in relation to the mean of the wound-closure area.
# [6] = test system: breast cancer MDA-MB-231 cells; assay: cells; assay type: cell-based
# Experimental: (§8) We calculated the inhibiting concentration that cause death of 50% of cells (IC50) and the selectivity index (SI) of the compounds tested (Table 4).
# as §2, §3, §4, §5
# [7] = test system: human embryonic kidney HEK 293 cells; assay: cells; assay type: cell-based
# Experimental: as §8, §2, §3, §4, §5
# metastatic breast cancer = test system: metastatic breast cancer; design: method as in PMID 21761157; conditions: syngeneic murine model of metastatic breast cancer; cited from earlier work
# [8] = test system: AsPC-1 human pancreatic cancer cells; design: method as in PMID 18837899; conditions: by induction of apoptosis; cited from earlier work
# [9] = test system: MDA-MB-231 human breast cancer cells; design: method as in PMID 21741966; conditions: concentration- and time-dependent; cited from earlier work
compound,measurement,setting,value
"CO[C@@H]1[C@@H](O)[C@H](O[C@@H]2[C@@H](O)[C@H](O[C@H]3[C@H](O)[C@@H](O)[C@H](O[C@H]4[C@H](O[C@H]5CC[C@]6(C)C7=C(CC[C@H]6C5(C)C)[C@]5(C)C[C@H](OC(C)=O)[C@H]([C@@](C)(O)CCC=C(C)C)[C@@]5(CO)CC7)OC[C@@H](O)[C@@H]4O)O[C@@H]3C)O[C@H](CO)[C@H]2O)OC[C@H]1O [Compound 2, (20S)-3β-O-[3-O-methyl-β-D-xylopyranosyl-(1→3)-β-D-glucopyranosyl-(1→4)-β-D-quinovopyranosyl-(1→2)-β-D-xylopyranosyl]-16β-acetoxy,18,20-dihydroxy-5α-lanosta-8(9),24-diene]",inhibition at 5 µM,[1],15%
same,"cytotoxic activity in words, HCT 116",[2],Moderate
same,IC50,"[2]; Homo sapiens, HCT-116, MTS assay, 24 h of cell incubation, mean ± SD, read-out: IC50, HCT 116",18.6 ± 1.4 µM
same,"SI (selectivity index), HCT 116","[2]; mean IC50 against normal cells (HEK 293)/mean IC50 against HCT 116, 24 h",1
same,"decrease of the number of colonies, MDA-MB-231",[3]; 0.6 µM,20%
same,"decrease of the number of colonies, MDA-MB-231",[3]; 1.25 µM,39%
same,"decrease of the number of colonies, MDA-MB-231",[3]; 2.5 µM,61%
same,"decrease of the number of colonies, MDA-MB-231",[3]; 5 µM,80%
same,"decrease of the number of colonies, HCT 116",[4]; 0.6 µM,11%
same,"decrease of the number of colonies, HCT 116",[4]; 1.25 µM,24%
same,"decrease of the number of colonies, HCT 116",[4]; 2.5 µM,52%
same,"decrease of the number of colonies, HCT 116",[4]; 5 µM,97%
same,suppression of migration of HCT 116 cells,[5]; 0.6 µM,8%
same,reduction of migration of HCT 116 cells,[5]; 0.6 µM,3%
same,suppression of migration of HCT 116 cells,[5]; 1.25 µM,18%
same,reduction of migration of HCT 116 cells,[5]; 1.25 µM,3%
same,suppression of migration of HCT 116 cells,[5]; 2.5 µM,42%
same,reduction of migration of HCT 116 cells,[5]; 2.5 µM,23%
same,suppression of migration of HCT 116 cells,[5]; 5 µM,41%
same,reduction of migration of HCT 116 cells,[5]; 5 µM,41%
same,inhibition at 0.6 µM,"[5]; Homo sapiens, HCT-116, 0.6 µM, 24 h of treatment, compared to control 24 h, read-out: inhibition of migration of HCT 116 cells",5%
same,inhibition at 1.25 µM,"[5]; Homo sapiens, HCT-116, 1.25 µM, 24 h of treatment, compared to control 24 h, read-out: inhibition of migration of HCT 116 cells",17%
same,inhibition at 2.5 µM,"[5]; Homo sapiens, HCT-116, 2.5 µM, 24 h of treatment, compared to control 24 h, read-out: inhibition of migration of HCT 116 cells",30%
same,inhibition at 5 µM,"[5]; Homo sapiens, HCT-116, 5 µM, 24 h of treatment, compared to control 24 h, read-out: inhibition of migration of HCT 116 cells",37%
same,"cytotoxic activity in words, MDA-MB-231",[6],Moderate
same,IC50,"[6]; Homo sapiens, MDA-MB-231, MTS assay, 24 h of cell incubation, mean ± SD, read-out: IC50, MDA-MB-231",15.5 ± 1.6 µM
same,"SI (selectivity index), MDA-MB-231","[6]; mean IC50 against normal cells (HEK 293)/mean IC50 against MDA-MB-231, 24 h",1.2
same,"cytotoxic activity in words, HEK 293",[7],Moderate
same,IC50,"[7]; Homo sapiens, HEK293, MTS assay, 24 h of cell incubation, mean ± SD, read-out: IC50, HEK 293",18.5 ± 2.5 µM
CO[C@@H]1[C@@H](O)[C@H](O[C@@H]2[C@@H](O)[C@H](O[C@H]3[C@H](O)[C@@H](O[C@@H]4OC[C@@H](O)[C@H](O)[C@H]4O)[C@H](O[C@H]4[C@H](OC5CC[C@]6(C)[C@H]7CCC89C(=O)O[C@@](C)(CCCC(C)C)C8[C@@H](OC(C)=O)C[C@@]9(C)C7=CC[C@H]6C5(C)C)OC[C@@H](OS(=O)(=O)O)[C@@H]4O)O[C@@H]3C)OC[C@H]2O)O[C@H](CO)[C@H]1O (some centres unmarked) [frondoside A],antimetastatic effect,metastatic breast cancer,potent antimetastatic effect
same,proliferation of AsPC-1 cells,[8],inhibits proliferation
same,viability of MDA-MB-231 cells,[9],decreases the viability

# — article PMC10820528, “New Rare Triterpene Glycosides from Pacific Sun Star, Solaster pacificus, and Their Anticancer Activity” (Marine Drugs, 2023)
